Some results are limits rather than exact numbers.

In assay [1] the test system is vesicular stomatitis virus (VSV). Briefly: microbe, parasite or virus in culture. It is filed as cell-based. As to conditions: Vesicular stomatitis virus, read-out: VSV Yield Inhibition.
For the next assay, the system named is interferon-α. Briefly: Interferon-α induction in human cells, PBM. It is filed as cell-based. Particulars: 24 hours.
In a further assay the test system is interferon. Briefly: Interferon induction in mice. It is filed as in vivo. Particulars: mouse serum. Here is the method: One hour later blood samples are withdrawn from the first group. The samples are pooled then centrifuged. The serum is removed from the centrifuge tube, split into two portions, then placed in freezing vials and maintained at −70° C. until analysis. This procedure is repeated at 2 hours with the second group of mice and at 4 hours with the third group of mice. Samples are assayed as described above in connection with the analysis of interferon induction in human cells. The results are expressed in the table below as α/β reference units/mL based on the value obtained for a mouse MU-1-IF standard. Results are shown in the table below wherein results designated as “<” a certain number indicate that interferon was not detectable in amounts above the lower sensitivity level of the assay.

Turning to `CC(C)Cn1c(CC(C)O)nc2c(N)nc3ccccc3c21` (stereo not drawn) [Example 81, 4-Amino-α-methyl-1-(2-methylpropyl)-1H-imidazo[4,5-c]quinoline-2-ethanol], the log reduction at 0.1 µg/mL in assay [1] turned out to be 5. In addition, the log reduction at 0.5 µg/mL in assay [1] came out at 4. Also, the log reduction at 1 µg/mL in assay [1] turned out to be 5. The Interferon-α induction in the assay on interferon-α (dose concentration 0.10 μg/mL) is recorded as 1100 α Reference Units/mL; with interferon-α (dose concentration 0.50 μg/mL), 2200 α Reference Units/mL; with interferon-α (dose concentration 1.0 μg/mL) it was 460 α Reference Units/mL; with interferon-α (dose concentration 5.0 μg/mL), 1100 α Reference Units/mL.

On to `COCCc1nc2c(N)nc3ccccc3c2n1CC(C)C` [Example 72, 2-(2-Methoxyethyl)-1-(2-methylpropyl)-1H-imidazo[4,5-c]quinolin-4-amine], for which the log reduction at 0.1 µg/mL in assay [1] came out at 5. For the same molecule, the log reduction at 0.5 µg/mL in assay [1] came out at 5. For the same molecule, the log reduction at 1 µg/mL in assay [1] came out at 5. For the same molecule, the Interferon-α induction with interferon-α (dose concentration 0.10 μg/mL) is reported as 200 α Reference Units/mL; in the assay with interferon-α (dose concentration 0.50 μg/mL), 210 α Reference Units/mL; in the assay with interferon-α (dose concentration 1.0 μg/mL) it was 220 α Reference Units/mL; in the assay on interferon-α (dose concentration 5.0 μg/mL) it was 420 α Reference Units/mL.

In the case of “4-Amino-N-hydroxyethyl-N-methyl-1-phenylmethyl-1H-imidazo[4,5-c]quinoline-2-methanamine Hemihydrate [Example 30]”, the Interferon-α induction with interferon-α (dose concentration 0.10 μg/mL) is <4 α Reference Units/mL; with interferon-α (dose concentration 0.50 μg/mL), <4 α Reference Units/mL; with interferon-α (dose concentration 1.0 μg/mL), <4 α Reference Units/mL; in the assay on interferon-α (dose concentration 5.0 μg/mL), 72 α Reference Units/mL. For the same molecule, the “Interferon induction in mice” value in the assay on interferon (oral 0.3 mg/kg, 1 hr) is on record as below 120 Reference Units/mL; with interferon (oral 0.3 mg/kg, 2 hr), below 120 Reference Units/mL; in the assay with interferon (oral 0.3 mg/kg, 4 hr) it was below 120 Reference Units/mL; in the assay with interferon (oral 1 mg/kg, 1 hr), below 120 Reference Units/mL; with interferon (oral 1 mg/kg, 2 hr), below 120 Reference Units/mL; in the assay on interferon (oral 1 mg/kg, 4 hr), below 120 Reference Units/mL. Moreover, the “Interferon induction in mice” value was below 120 Reference Units/mL in the assay on interferon (oral 3 mg/kg, 1 hr); below 120 Reference Units/mL in the assay with interferon (oral 3 mg/kg, 2 hr); below 120 Reference Units/mL with interferon (oral 3 mg/kg, 4 hr); below 120 Reference Units/mL in the assay with interferon (oral 10 mg/kg, 1 hr); 600 Reference Units/mL in the assay on interferon (oral 10 mg/kg, 2 hr); below 120 Reference Units/mL in the assay on interferon (oral 10 mg/kg, 4 hr).

In the case of “4-Amino-α-butyl-1-(2-methylpropyl)-1H-imidazo[4,5-c]quinoline-2-methanol Hemihydrate [Example 60]”, the Interferon-α induction in the assay with interferon-α (dose concentration 0.10 μg/mL) is on record as 1700 α Reference Units/mL; with interferon-α (dose concentration 0.50 μg/mL), 430 α Reference Units/mL; with interferon-α (dose concentration 1.0 μg/mL), 570 α Reference Units/mL; in the assay with interferon-α (dose concentration 5.0 μg/mL), 570 α Reference Units/mL. Also, the “Interferon induction in mice” value with interferon (oral 0.3 mg/kg, 1 hr) was 120 Reference Units/mL; in the assay with interferon (oral 0.3 mg/kg, 2 hr), 870 Reference Units/mL; in the assay on interferon (oral 0.3 mg/kg, 4 hr) it was “≦56 Reference Units/mL”; with interferon (oral 1 mg/kg, 1 hr) it was 290 Reference Units/mL; with interferon (oral 1 mg/kg, 2 hr), 1500 Reference Units/mL; in the assay on interferon (oral 1 mg/kg, 4 hr), 120 Reference Units/mL. Further, the “Interferon induction in mice” value with interferon (oral 3 mg/kg, 1 hr) stood at 380 Reference Units/mL; in the assay on interferon (oral 3 mg/kg, 2 hr), 870 Reference Units/mL; with interferon (oral 3 mg/kg, 4 hr), 290 Reference Units/mL; in the assay on interferon (oral 10 mg/kg, 1 hr) it was 870 Reference Units/mL; in the assay with interferon (oral 10 mg/kg, 2 hr) it was 3400 Reference Units/mL; with interferon (oral 10 mg/kg, 4 hr), 1100 Reference Units/mL.

As for `COC(c1ccccc1)c1nc2c(N)nc3ccccc3c2n1CC(C)C` (stereo not drawn) [Example 51, 2-(α-Methoxybenzyl)-1-(2-methylpropyl)-1H-imidazo[4,5-c]quinolin-4-amine], the log reduction at 0.1 µg/mL in assay [1] stood at 0. In assay [1], the log reduction at 0.5 µg/mL is 1. For the same molecule, the log reduction at 1 µg/mL in assay [1] stood at 5. Also, the Interferon-α induction with interferon-α (dose concentration 0.10 μg/mL) is <5 α Reference Units/mL; in the assay on interferon-α (dose concentration 0.50 μg/mL), <5 α Reference Units/mL; in the assay on interferon-α (dose concentration 1.0 μg/mL), 1000 α Reference Units/mL; in the assay with interferon-α (dose concentration 5.0 μg/mL), 330 α Reference Units/mL.

For “1-Butyl-2-methoxyethyl-1H-imidazo[4,5-c]quinolin-4-amine [Example 115]”, the Interferon-α induction in the assay with interferon-α (dose concentration 0.01 μg/mL) is given as 91 α Reference Units/mL; in the assay on interferon-α (dose concentration 0.05 μg/mL), 96 α Reference Units/mL; with interferon-α (dose concentration 0.10 μg/mL), 120 α Reference Units/mL; in the assay with interferon-α (dose concentration 0.50 μg/mL), 190 α Reference Units/mL; with interferon-α (dose concentration 1.0 μg/mL) it was 190 α Reference Units/mL; in the assay with interferon-α (dose concentration 5.0 μg/mL), 240 α Reference Units/mL. In addition, the “Interferon induction in mice” value in the assay on interferon (oral 0.3 mg/kg, 1 hr) is “˜380 Reference Units/mL”; in the assay with interferon (oral 0.3 mg/kg, 2 hr) it was 2500 Reference Units/mL; in the assay with interferon (oral 0.3 mg/kg, 4 hr) it was “˜360 Reference Units/mL”; in the assay on interferon (oral 1 mg/kg, 1 hr), 1400 Reference Units/mL; in the assay with interferon (oral 1 mg/kg, 2 hr), 2900 Reference Units/mL; with interferon (oral 1 mg/kg, 4 hr), “˜310 Reference Units/mL”. Besides, the “Interferon induction in mice” value is 2200 Reference Units/mL in the assay with interferon (oral 3 mg/kg, 1 hr); 5300 Reference Units/mL in the assay with interferon (oral 3 mg/kg, 2 hr); “˜310 Reference Units/mL” in the assay with interferon (oral 3 mg/kg, 4 hr); 5600 Reference Units/mL in the assay with interferon (oral 10 mg/kg, 1 hr); 5300 Reference Units/mL in the assay with interferon (oral 10 mg/kg, 2 hr); 870 Reference Units/mL in the assay with interferon (oral 10 mg/kg, 4 hr).

With `CCCCn1c(COCC)nc2c(N)nc3ccccc3c21` [Example 117, 1-Butyl-2-ethoxymethyl-1H-imidazo[4,5-c]quinolin-4-amine], the Interferon-α induction in the assay with interferon-α (dose concentration 0.01 μg/mL) is recorded as <4.4 α Reference Units/mL; in the assay on interferon-α (dose concentration 0.05 μg/mL), 360 α Reference Units/mL; in the assay with interferon-α (dose concentration 0.10 μg/mL), 340 α Reference Units/mL; with interferon-α (dose concentration 0.50 μg/mL), 140 α Reference Units/mL; in the assay on interferon-α (dose concentration 1.0 μg/mL), 91 α Reference Units/mL; with interferon-α (dose concentration 5.0 μg/mL), 110 α Reference Units/mL. Further, the “Interferon induction in mice” value in the assay on interferon (oral 0.3 mg/kg, 1 hr) is recorded as below 160 Reference Units/mL; in the assay with interferon (oral 0.3 mg/kg, 2 hr) it was 1200 Reference Units/mL; in the assay with interferon (oral 0.3 mg/kg, 4 hr) it was below 160 Reference Units/mL; in the assay on interferon (oral 1 mg/kg, 1 hr), “≦270 Reference Units/mL”; in the assay on interferon (oral 1 mg/kg, 2 hr), 630 Reference Units/mL; with interferon (oral 1 mg/kg, 4 hr), “≦270 Reference Units/mL”. For the same molecule, the “Interferon induction in mice” value was “˜820 Reference Units/mL” in the assay with interferon (oral 3 mg/kg, 1 hr); 2200 Reference Units/mL in the assay with interferon (oral 3 mg/kg, 2 hr); “˜310 Reference Units/mL” in the assay on interferon (oral 3 mg/kg, 4 hr); 1100 Reference Units/mL with interferon (oral 10 mg/kg, 1 hr); 480 Reference Units/mL in the assay on interferon (oral 10 mg/kg, 2 hr); “˜310 Reference Units/mL” with interferon (oral 10 mg/kg, 4 hr).

For the origin of these results see patent US6465654B2, “Process for preparing 1-substituted, 2-substituted 1H-imidazo[4, 5-c]quinoline-4-amines” (3M Innovative Properties Company, priority 1991, dated 2002).
